From patent US6426331B1, “Inhibitors of STAT function” (Tularik Inc., priority 1998, dated 2002)

Target: T1, STAT6 (Homo sapiens, UniProt P42226)
T1 sequence (P42226 1-847): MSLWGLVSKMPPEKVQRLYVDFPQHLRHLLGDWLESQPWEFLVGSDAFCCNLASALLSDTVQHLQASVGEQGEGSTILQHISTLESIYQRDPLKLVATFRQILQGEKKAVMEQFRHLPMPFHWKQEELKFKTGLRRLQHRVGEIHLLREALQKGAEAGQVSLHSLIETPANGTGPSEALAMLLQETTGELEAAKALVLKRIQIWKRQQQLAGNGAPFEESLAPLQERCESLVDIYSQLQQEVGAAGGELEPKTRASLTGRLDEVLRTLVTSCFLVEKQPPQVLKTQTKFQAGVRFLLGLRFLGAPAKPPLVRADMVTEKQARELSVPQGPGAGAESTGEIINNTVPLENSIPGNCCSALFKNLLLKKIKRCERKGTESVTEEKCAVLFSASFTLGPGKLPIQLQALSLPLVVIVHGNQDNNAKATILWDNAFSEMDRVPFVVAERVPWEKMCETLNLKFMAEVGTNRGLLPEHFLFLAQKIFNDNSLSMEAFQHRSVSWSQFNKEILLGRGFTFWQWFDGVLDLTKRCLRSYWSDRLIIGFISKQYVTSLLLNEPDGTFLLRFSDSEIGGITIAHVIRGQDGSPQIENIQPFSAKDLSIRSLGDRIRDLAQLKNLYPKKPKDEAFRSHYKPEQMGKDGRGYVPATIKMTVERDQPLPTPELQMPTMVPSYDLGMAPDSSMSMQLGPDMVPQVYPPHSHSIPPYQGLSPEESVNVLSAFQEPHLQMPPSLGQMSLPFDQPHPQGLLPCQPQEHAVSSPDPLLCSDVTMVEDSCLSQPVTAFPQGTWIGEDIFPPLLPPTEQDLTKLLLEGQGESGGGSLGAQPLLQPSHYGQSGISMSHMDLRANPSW
Test: Inhibition of STAT6 binding (duplex formation)
Protocol: The compounds of the present invention can be evaluated for STAT binding activity using methods such as those described in U.S. Pat. No. 6,207,391 (for STAT6 binding). Other assays for STAT binding can be found in, for example, U.S. Pat. Nos. 5,618,693, 5,639,858 and 5,756,700.
Using methods similar to those described in Examples 1 and 2, the compounds provided in Table 1 were prepared and evaluated as inhibitors of STAT6 binding (duplex formation). The assay is described in U.S. Pat. No. 6,207,391, filed Mar. 31, 1998. In each of the tables below: a + symbol indicates and IC50 of >100 μM; a ++ symbol indicates and IC50 of 50-100 μM; a +++ symbol indicates and IC50 of 1-50 μM; and a ++++ symbol indicates and IC50 of <1.0 μM.

[1] = Table 1, inhibitors of STAT6 binding (duplex formation)

Row | Structure (SMILES) | IC50 (Table 2, STAT6 binding) [µM] | IC50 [1] [µM]
1 | CC(C)(C)[C@H](NC(=O)/C=C/c1cccc(C(=O)O)c1)C(=O)N1CCC[C@H]1C(=O)N(c1ccccc1)c1ccc(C(N)=O)cc1 | > 100 | –
2 | CC(C)(C)[C@H](NC(=O)/C=C/c1cccc(CC(=O)O)c1)C(=O)N1CCC[C@H]1C(=O)N(c1ccccc1)c1ccc(C(N)=O)cc1 | > 100 | –
3 | CC(C)(C)[C@H](NC(=O)/C=C/c1ccc(CC(=O)O)cc1)C(=O)N1CCC[C@H]1C(=O)N(c1ccccc1)c1ccc(C(N)=O)cc1 | > 100 | –
4 | CC(C)(C)[C@H](NC(=O)/C=C/c1ccc(OCC(=O)O)cc1)C(=O)N1CCC[C@H]1C(=O)N(c1ccccc1)c1ccc(C(N)=O)cc1 | > 100 | –
5 | CC(C)(C)[C@H](NC(=O)/C=C/c1ccc(C(=O)O)cn1)C(=O)N1CCC[C@H]1C(=O)N(c1ccccc1)c1ccc(C(N)=O)cc1 | > 100 | –
6 | CC(C)(C)[C@H](NC(=O)/C=C/c1cccc(C(=O)O)n1)C(=O)N1CCC[C@H]1C(=O)N(c1ccccc1)c1ccc(C(N)=O)cc1 | > 100 | –
7 | CC(C)(C)[C@H](NC(=O)/C=C/c1ccc(C(O)C(=O)O)cc1)C(=O)N1CCC[C@H]1C(=O)N(Cc1ccc(CN)cc1)c1ccc(C(N)=O)cc1 (stereo partly drawn) [drawing 46: H, H, 4-CONH2,4-CH2NH2] | – | 1 to 50
8 | CC(C)(C)[C@H](NC(=O)/C=C/c1ccc(C(O)C(=O)O)cc1)C(=O)N1CCC[C@H]1C(=O)N(Cc1ccccc1)c1ccc(C(=O)Nc2ccccc2)cc1 (stereo partly drawn) [drawing 46: H, H, 4-CONHPh, H] | – | > 100
9 | CC(C)(C)[C@H](NC(=O)/C=C/c1ccc(C(O)C(=O)O)cc1)C(=O)N1C[C@H](N(Cc2ccccc2)Cc2ccccc2)C[C@H]1C(=O)N(Cc1ccccc1)c1ccc(C(N)=O)cc1 (stereo partly drawn) [drawing 46: H, —N(Bn)2,4-CONH2, H] | – | > 100
10 | CN(C)[C@@H]1C[C@@H](C(=O)N(Cc2ccccc2)c2ccc(C(N)=O)cc2)N(C(=O)[C@@H](NC(=O)/C=C/c2ccc(C(O)C(=O)O)cc2)C(C)(C)C)C1 (stereo partly drawn) [drawing 46: H, —N(CH3)2,4-CONH2, H] | – | 50 to 100
11 | CC(C)(C)[C@H](NC(=O)/C=C/c1ccc(C(O)C(=O)O)cc1)C(=O)N1C[C@H](N)C[C@H]1C(=O)N(Cc1ccccc1)c1ccc(C(N)=O)cc1 (stereo partly drawn) [drawing 46: H, —NH2,4-CONH2, H] | – | 1 to 50

Next, values leading:

Row | IC50 (Table 2, STAT6 binding) [µM] | IC50 [1] [µM] | Structure (SMILES)
12 | 1 to 50 | – | CC(C)(C)[C@H](NC(=O)/C=C/c1ccc(CP(=O)(O)O)cc1)C(=O)N1CCC[C@H]1C(=O)N(c1ccccc1)c1ccc(C(N)=O)cc1
13 | > 100 | – | CC(C)(C)[C@H](NC(=O)/C=C/c1cccc(CP(=O)(O)O)c1)C(=O)N1CCC[C@H]1C(=O)N(c1ccccc1)c1ccc(C(N)=O)cc1
14 | 1 to 50 | – | CC(C)(C)[C@H](NC(=O)/C=C/c1ccc(C(O)P(=O)(O)O)cc1)C(=O)N1CCC[C@H]1C(=O)N(c1ccccc1)c1ccc(C(N)=O)cc1 (stereo partly drawn)
15 | < 1 | – | CC(C)(C)[C@H](NC(=O)/C=C/c1ccc(C(F)(F)P(=O)(O)O)cc1)C(=O)N1CCC[C@H]1C(=O)N(c1ccccc1)c1ccc(C(N)=O)cc1
16 | 1 to 50 | – | CC(C)(C)[C@H](NC(=O)/C=C/c1ccc(P(=O)(O)O)cc1)C(=O)N1CCC[C@H]1C(=O)N(c1ccccc1)c1ccc(C(N)=O)cc1
17 | 1 to 50 | – | COc1cc(/C=C/C(=O)N[C@H](C(=O)N2CCC[C@H]2C(=O)N(c2ccccc2)c2ccc(C(N)=O)cc2)C(C)(C)C)ccc1P(=O)(O)O
18 | 1 to 50 | – | CC(C)(C)[C@H](NC(=O)/C=C/c1ccc(P(=O)(O)O)c(O)c1)C(=O)N1CCC[C@H]1C(=O)N(c1ccccc1)c1ccc(C(N)=O)cc1
19 | > 100 | – | CC(C)(C)[C@H](NC(=O)/C=C/c1ccc(C(=O)O)cc1)C(=O)N1CCC[C@H]1C(=O)N(c1ccccc1)c1ccc(C(N)=O)cc1
20 | 1 to 50 | – | CC(C)(C)[C@H](NC(=O)/C=C/c1ccc(C(=O)O)c(C(=O)O)c1)C(=O)N1CCC[C@H]1C(=O)N(c1ccccc1)c1ccc(C(N)=O)cc1
21 | 1 to 50 | – | CC(C)(C)[C@H](NC(=O)/C=C/c1ccc(OC(F)(C(=O)O)C(=O)O)cc1)C(=O)N1CCC[C@H]1C(=O)N(c1ccccc1)c1ccc(C(N)=O)cc1
